The text below walks through data of US12492337B2, “Fluorescent probe, preparation method therefor and use thereof” (FLUORESCENCE DIAGNOSIS (SHANGHAI) BIOTECH COMPANY, priority 2017, dated 2025).

Series [1] can be described thus: Viscosity responsiveness: fluorescence intensity in glycerol versus methanol. The note with it: fluorescence intensity in glycerol to that in methanol. Format: physicochemical. As for the experimental part:
The above-mentioned viscosity-responsive fluorescent dye means that the fluorescence intensity of the dye responds to the viscosity of the solution. As the viscosity of the solution increases, the fluorescence intensity increases. Optionally, the viscosity-responsive fluorescent dye is an organic dye molecule which, under the same concentration and excitation wavelength, at 25° C. has a ratio • of the maximum fluorescence emission intensity of the dye in glycerol to the fluorescence intensity in methanol of greater than 2, optionally greater than 5, optionally greater than 10. The concentration of the viscosity-responsive dye ranges from 1×10^−7 M to 1×10^−5 M.

For series [2], the system named is HaloTag protein tag. The series is described as follows: Probe mixed with HaloTag protein tag, fluorescence spectrophotometer (Example 86). Format: biochemical. The note with it: 5 μM probe, 10 μM protein tag, 37° C., 1 hour; for Fluorescence enhancement: fluorescence activation multiple after binding protein tag; for Emission/nm: fluorescence emission wavelength. How it is done: (§1) A probe was mixed with a corresponding HaloTag protein tag to obtain a mixed sample. The final concentration of the probe in the mixed sample was 5 μM and the final concentration of the protein tag was 10 μM. The mixed sample was incubated at 37° C. for 1 hour, and the sample was detected using a fluorescence spectrophotometer.

The nature of series [3]: Quantum yield of free probe not reacted with protein tag. Format: physicochemical. As for the experimental part:
as §1

Regarding `CN(CCOC(=O)NCCOCCOCCCCCCCl)c1ccc(/C=C(\C#N)c2nc3ccccc3s2)cc1` [Probe 3], the ratio in series [1] is given as 399. In series [2], the “The quantum yield after binding to Halo-tag” value was determined as 0.45, the Fluorescence enhancement was determined as 512 and the Emission/nm was 515 nm. Besides, the “The quantum yield of the free probe” value in series [3] worked out at 0.0011.
In the case of `CN(CCOC(=O)NCCOCCOCCCCCCCl)c1ccc2cc(/C=C(\C#N)C(=O)OC(C)(C)C)sc2c1` [Probe 13], in series [1], the ratio is recorded as 391. Also, in series [2], the “The quantum yield after binding to Halo-tag” value is 0.56, the Fluorescence enhancement was 816 and the Emission/nm is 570 nm. Further, in series [3], the “The quantum yield of the free probe” value was under 0.001.
For the compound `CN1C(=O)/C(=C/c2nc3ccc(N(C)CCOC(=O)NCCOCCOCCCCCCCl)cc3o2)N=C1c1ccccc1` [Probe 22], the ratio in series [1] came out at 1821. Further, in series [2], the “The quantum yield after binding to Halo-tag” value is 0.36, the Fluorescence enhancement is reported as 610 and the Emission/nm was 632 nm. In addition, in series [3], the “The quantum yield of the free probe” value is recorded as under 0.001.
In the case of `CN(CCOC(=O)NCCOCCOCCCCCCCl)c1ccc2nc(/C=C(\C#N)c3nc4ccccc4o3)ccc2c1` [Probe 27], the ratio in series [1] is 1134. In series [2], the “The quantum yield after binding to Halo-tag” value was 0.43, the Fluorescence enhancement is 665 and the Emission/nm is listed as 620 nm. In addition, in series [3], the “The quantum yield of the free probe” value is given as under 0.001.
For the compound `CN(C)c1ccc2cc(/C=C(\C#N)C(=O)NCCCCCCCl)sc2c1` [Probe 67], the ratio in series [1] came to 276. In addition, in series [2], the “The quantum yield after binding to Halo-tag” value is recorded as 0.48, the Fluorescence enhancement is 576 and the Emission/nm amounted to 580 nm. Moreover, the “The quantum yield of the free probe” value in series [3] is recorded as under 0.001.
Take `CN(C)c1ccc2nc(/C=C(\C#N)C(=O)NCCOCCOCCCCCCCl)sc2c1` [Probe 71]: in series [1], the ratio came to 321. In addition, in series [2], the “The quantum yield after binding to Halo-tag” value is on record as 0.61, the Fluorescence enhancement is 475 and the Emission/nm is on record as 620 nm. For the same compound, the “The quantum yield of the free probe” value in series [3] is recorded as 0.0028.
On the same counts, the results for `CN(CCOC(=O)NCCOCCOCCCCCCCl)c1cc2cc3sc(/C=C(\C#N)C(=O)OC(C)(C)C)cc3cc2s1` [Probe 36] are 1258, 0.58, 488, 630 nm and 0.001.
For `CC(C)(C)OC(=O)/C(C#N)=C/c1ccc2c(c1)SCCN2CCOC(=O)NCCOCCOCCCCCCCl` [Probe 44], in that order: 1459, 0.63, 1586, 521 nm and under 0.001.
As to `N#C/C(=C\c1ccc2c(c1)SCCN2CCOC(=O)NCCOCCOCCCCCCCl)c1nc2ccccc2o1` [Probe 45], the ratio in series [1] is 752. Besides, in series [2], the “The quantum yield after binding to Halo-tag” value was found to be 0.54, the Fluorescence enhancement worked out at 958 and the Emission/nm is 545 nm. Further, the “The quantum yield of the free probe” value in series [3] was under 0.001.
In the case of `CN(CCOC(=O)NCCOCCOCCCCCCCl)c1cc2c(s1)-c1sc(/C=C(\C#N)c3nc4ccccc4s3)cc1[Si]2(C)C` [Probe 39], the ratio in series [1] is 892. Also, in series [2], the “The quantum yield after binding to Halo-tag” value worked out at 0.38, the Fluorescence enhancement is 335 and the Emission/nm is given as 700 nm. Further, the “The quantum yield of the free probe” value in series [3] is on record as 0.0016.
Regarding `CC(C)(C)OC(=O)/C(C#N)=C/c1cc2ccc(N(CCO)CCOC(=O)NCCOCCOCCCCCCCl)cc2s1` [Probe 15], the ratio in series [1] is on record as 320. Also, in series [2], the “The quantum yield after binding to Halo-tag” value was 0.53, the Fluorescence enhancement was determined as 379 and the Emission/nm is listed as 570 nm. In addition, the “The quantum yield of the free probe” value in series [3] is under 0.001.
Consider `CN(CCOC(=O)NCCOCCOCCCCCCCl)c1ccc2c(c1)sc1cc(/C=C(\C#N)C(=O)OC(C)(C)C)sc12` [Probe 32], for which, in series [1], the ratio worked out at 997. Further, in series [2], the “The quantum yield after binding to Halo-tag” value was found to be 0.46, the Fluorescence enhancement was 638 and the Emission/nm is given as 609 nm. In addition, the “The quantum yield of the free probe” value in series [3] is under 0.001.
On the same counts, the results for `CN(CCOC(=O)NCCOCCOCCCCCCCl)c1cc2sc(/C=C(\C#N)C(=O)OC(C)(C)C)cc2s1` [Probe 10] are 655, 0.42, 431, 550 nm and under 0.001.
On the same counts, the results for `CN(CCO)c1ccc(/C=C(\C#N)C(=O)NCCOCCOCCCCCCCl)cc1` [Probe 58] are 419, 0.58, 519, 480 nm and under 0.001.
For the compound `CN(CCOC(=O)NCCOCCOCCCCCCCl)c1ccc2nc(/C=C(\C#N)C(=O)OC(C)(C)C)ccc2c1` [Probe 26], the ratio in series [1] was 1123. Also, in series [2], the “The quantum yield after binding to Halo-tag” value stood at 0.56, the Fluorescence enhancement is 910 and the Emission/nm was 590 nm. Moreover, the “The quantum yield of the free probe” value in series [3] is recorded as under 0.001.
On to `CN(CCOC(=O)NCCOCCOCCCCCCCl)c1ccc2nc(/C=C(\C#N)C(=O)O)oc2c1` [Probe 21], for which the ratio in series [1] was 1481. For the same compound, in series [2], the “The quantum yield after binding to Halo-tag” value worked out at 0.48, the Fluorescence enhancement is given as 560 and the Emission/nm is listed as 628 nm. Moreover, the “The quantum yield of the free probe” value in series [3] is listed as under 0.001.
Consider `CN(CCOC(=O)NCCOCCOCCCCCCCl)c1cc2sc3cc(/C=C(\C#N)c4nc5ccccc5s4)sc3c2s1` [Probe 31], for which the ratio in series [1] is listed as 1135. In addition, in series [2], the “The quantum yield after binding to Halo-tag” value turned out to be 0.41, the Fluorescence enhancement is 875 and the Emission/nm came out at 660 nm. The “The quantum yield of the free probe” value in series [3] was under 0.001.
Consider `CN(CCOC(=O)NCCOCCOCCCCCCCl)c1ccc2nc(/C=C(\C#N)c3nc4ccccc4o3)oc2c1` [Probe 20], for which the ratio in series [1] is on record as 341. In series [2], the “The quantum yield after binding to Halo-tag” value is 0.47, the Fluorescence enhancement came to 612 and the Emission/nm is 640 nm. In addition, the “The quantum yield of the free probe” value in series [3] is under 0.001.
As to `CN(CCOC(=O)NCCOCCOCCCCCCCl)c1ccc2nc(/C=C(\C#N)C(=O)O)sc2c1` [Probe 25], the ratio in series [1] came to 1621. Further, in series [2], the “The quantum yield after binding to Halo-tag” value is on record as 0.51, the Fluorescence enhancement amounted to 670 and the Emission/nm is listed as 620 nm. Further, the “The quantum yield of the free probe” value in series [3] is under 0.001.
For `CN(CCOC(=O)NCCOCCOCCCCCCCl)c1ccc2nc(/C=C(\C#N)c3nc4ccccc4s3)oc2c1` [Probe 23], in that order: 1235, 0.52, 712, 637 nm and under 0.001.
For `CN(C)c1ccc2c(c1)C(C)(C)c1cc(/C=C(\C#N)C(=O)NCCOCCOCCCCCCCl)sc1-2` [Probe 86], in that order: 470, 0.52, 618, 550 nm and 0.0012.
For `CN(CCOC(=O)NCCOCCOCCCCCCCl)c1cc2c(s1)-c1sc(/C=C(\C#N)C(=O)O)cc1C2(C)C` [Probe 50], in that order: 358, 0.53, 416, 637 nm and under 0.001.
For `CN(C)c1ccc2cc(/C=C(\C#N)C(=O)OCCOCCOCCCCCCCl)sc2c1` [Probe 64], the ratio in series [1] was found to be 632. In series [2], the “The quantum yield after binding to Halo-tag” value turned out to be 0.60, the Fluorescence enhancement is 519 and the Emission/nm amounted to 585 nm. The “The quantum yield of the free probe” value in series [3] is on record as under 0.001.
For `CN(CCOC(=O)NCCOCCOCCCCCCCl)c1ccc(/C=C(\C#N)c2nc3ccccc3o2)cc1` [Probe 2], in that order: 410, 0.48, 410, 510 nm and 0.001.
As to `CNc1ccc2cc(/C=C(\C#N)C(=O)NCCOCCOCCCCCCCl)sc2c1` [Probe 66], the ratio in series [1] is listed as 386. Also, in series [2], the “The quantum yield after binding to Halo-tag” value amounted to 0.53, the Fluorescence enhancement is recorded as 512 and the Emission/nm worked out at 550 nm. Moreover, the “The quantum yield of the free probe” value in series [3] is recorded as under 0.001.
For `CN(C)c1cc2c(s1)-c1sc(/C=C(\C#N)C(=S)NCCOCCOCCCCCCCl)cc1[Si]2(C)C` [Probe 83], in that order: 652, 0.53, 456, 680 nm and under 0.001.
